Experimental data published in patent US10264794B2, “Compositions comprising unsaturated fatty esters and uses thereof” (priority 2013, dated 2019).

Test system: ASTM test fungi
Assay: Agar plate testing
Assay type: cell-based
Details: agar plates, 14 days at 30 C
From the text: ASTM test fungi in Petri dishes were subjected to Treatment solutions with and without unsaturated fatty esters (linoleic, oleic, linolenic and arachidonic esters as a 1:1:1:1 ratio). The agar plate test method allowed for rapid determinations of antifungal efficacy against wood-degrading strains of concern. The certified cultures were obtained from the American Type Culture Collection (ATCC) and propagated as per the product information sheets: • Irpex lacteus: ATCC number 11245, yeast medium Difco 0712 (ATCC medium no. 200) • Neolentius lepideus: ATCC number 12653, YM agar Difco 0712 (ATCC medium no. 200) • Postia poria: ATCC number 11538, YM agar Difco 0712 (ATCC medium no. 200) • Pleurotus ostreatus: ATCC number 32237, YM agar Difco 0712 (ATCC medium no. 200) • Trametes versicolor: ATCC number 42462, Hagem's-Modess medium (ATCC medium no. 479) • Gleoephyllum trabeum: ATCC number 11539, Potato Dextrose Agar with 0.5% yeast extract (ATCC medium no. 337)
Each plate was then inoculated in a flame induced sterile environment with a 5 mm diameter agar plug fungal colony of those fungi listed. […] The plates were incubated for 14 days at 30 C and the presence or absence of fungal growth was noted and measured.

Oc1c(Cl)c(Cl)c(Cl)c(Cl)c1Cl [PCP, pentachlorophenol]
growth of fungi: completely inhibited
